# Key:
# SW480 cells = assay: In-vitro killing activity Test 1 (CCK8), SW480; assay type: cell-based, human; conditions: 7 days, read-out: EC50 of ADC killing (nM) SW480
# Description: (§1) Tumor cells in a good growth status are collected by digestion and centrifugation, SW480 (purchased from ATCC, Cat. No. CCL-228), NCI-H358 (purchased from ATCC, Cat. No. CRL-5807), LS1034 cells (Nanjing Cobioer Biosciences Co., Ltd., Cat. No. CBP60013), NCI-H716 (purchased from ATCC, Cat. No. CCL-251) cells are directly collected by centrifugation, the foregoing cells are all resuspended with RPMI 1640+5% FBS+Ps, and are counted, and 5000 (LS1034 and NCI-H716) or 3000 (SW480 and NCI-H358) cells are plated in each well in a volume of 100 uL; ADCs to be tested are diluted separately with resuspension media corresponding to the foregoing 3 types of cells, starting at 300 µg/mL ([…]) for 3-fold dilution with 11 concentration points, and added into a plate with 100 µL/well, to make the ADCs have a final concentration of 150 µg/mL, for incubation at 37° C. for 5 days (LS1034 and NCI-H358) or 7 days (NCI-H716 and SW480); after the incubation is completed, CCK8 is added with 20 µL/well, for a reaction for 1-3 hours; and values are read out at 450 nm by a microplate reader and imported into Graphpad Prism for curve-fitting.
# NCI-H716 cells [1] = assay: In-vitro killing activity Test 1 (CCK8), NCI-H716; assay type: cell-based, human; conditions: 7 days, read-out: EC50 of ADC killing (nM) NCI-H716
# Description: as §1
# [2] = tested on: human colorectal adenocarcinoma NCI-H716 cell lines; assay: In-vivo efficacy in NCI-H716 CDX models; parameters: species or system mouse; conditions: i.v., QW*3, NCI-H716 CDX
# Description: (§2) To verify the in-vivo efficacy of the anti-human cMet ADC drugs and evaluate the anti-tumor effects of the tested drugs in female Balb/c Nude mouse models subjected to subcutaneous xenografts, 5-6 week old female Balb/c Nude mice (Vital River) are purchased, human non-small cell lung cancer NCI-H358 cells that have grown to the logarithmic growth phase are digested with EDTA and then resuspended with PBS, each mouse is subcutaneously inoculated with 5*10^6 cells, and when the tumor grows to a size of […], intravenous administration is performed once a week with 1 mg/kg or 3 mg/kg each time.
# A similar method is used to evaluate the anti-tumor effects of cMet ADC test drugs in female BALB/c nude mouse animal models subjected to subcutaneous xenografts of human colorectal adenocarcinoma NCI-H716 cell lines.
# NCI-H716 cells [3] = assay: Flow cell affinity of ADCs, NCI-H716; assay type: binding, human; conditions: flow cytometry
# [4] = tested on: human colon cancer SW480 cell lines; assay: In-vivo efficacy in SW480 CDX models; parameters: species or system mouse; conditions: 5 mg/kg, i.v., QW*2, SW480 CDX
# Description: as §2
# A similar method is used to evaluate the anti-tumor effects of anti-cMet ADC test drugs in female BALB/c nude mouse animal models subjected to subcutaneous xenografts of human colon cancer SW480 cell lines.
# LS1034 cells [5] = assay: Flow cell affinity of ADCs, LS1034; assay type: binding, human; conditions: flow cytometry
# NCI-H358 cells [6] = assay: Flow cell affinity of ADCs, NCI-H358; assay type: binding, human; conditions: flow cytometry
# LS1034 cells [7] = assay: In-vitro killing activity Test 1 (CCK8), LS1034; assay type: cell-based, human; conditions: 5 days, read-out: EC50 of ADC killing (nM) LS1034
# Description: as §1
# [8] = tested on: human non-small cell lung cancer NCI-H358 cells; assay: In-vivo efficacy in NCI-H358 CDX models (Test 1); parameters: species or system mouse; conditions: 1 mg/kg, i.v., QW*3, NCI-H358 CDX
# Description: as §2
# NCI-H358 cells [9] = assay: In-vitro killing activity Test 1 (CCK8), NCI-H358; assay type: cell-based, human; conditions: 5 days, read-out: EC50 of ADC killing (nM) NCI-H358
# Description: as §1
# h.cMet-ECD-His [10] = molecular target: T1, h.cMet-ECD-His (Homo sapiens, UniProt P08581); assay: ELISA protein affinity of cMET antibodies before and after conjugating into ADCs; assay type: binding
# T1 construct: a human cMet ectodomain recombinant protein (Human HGF R/c-MET Protein, His Tag); purchased Acrobiosystems Co., Ltd. / ACRO Biosystems MET-H5227
# Description: Proteins anti-His-Rabbit Fc are coated with the CBS to […], and are blocked with 2% BSA (in PBS) at 37° C. for 2 hours, h.cMet-ECD-His of […] is added for incubation at 37° C. for 2 hours, after 2 hours, antibodies to be tested or ADCs that are gradiently diluted (starting at […] for 3-fold dilution with 11 concentration points) are added for incubation at 37° C. for 2 hours, after 2 hours, HRP-labeled anti-human specific secondary antibodies (Jackson, 115-035-164) are added for incubation at 37° C. for 1 hour, a TMB substrate is added for color development, and after the color development is stopped using HCl of 2M, final products are added into a machine to read out absorbance values at […].
# NCI-H69 cells = assay: Flow cell affinity of ADCs, NCI-H69; assay type: binding, human; conditions: flow cytometry
# [11] = molecular target: T2, HGF ligand on MKN45 cells (Homo sapiens, UniProt P08581); assay: FACS competition of humanized antibodies with HGF ligand on MKN45 cells; assay type: binding; conditions: HGF-His-biotin 50 ng/ml, MKN45
# T2 construct: MKN45 cells expressing c-MET antigens; endogenous in cells; host or cells: MKN45
# Description: (§3) Therefore, competitive actions of the humanized antibodies on ligand binding and actions of inhibiting HGF-induced ERK phosphorylation are detected.
# (§4) MKN45 cells are collected by trypsin digestion and centrifugation, and are washed three times with a pre-cooled PBS, the cells are resuspended with 1% BSA (in PBS), and are plated into a 96-well conical bottom plate with 2^10^5 cells (50 ul) per well, anti-cMet humanized antibodies are gradiently diluted with 1% BSA, starting at 15 μg/ml to a final concentration from 5 μg/ml with a 3-fold dilution gradient and 8 dilution points, 50 ul diluted antibodies are mixed well with the cells in the conical bottom plate, HGF-His-biotin (from Chengdu NB Biolab Co., Ltd.) is diluted with 1% BSA to 150 ng/ml, and is added into the well plate with 50 ul/well, to make a final concentration of ligands of 50 ng/ml, for incubation at 4° C. for 1 hour after fully mixing, after three times of washing with the pre-cooled PBS, 100 ul of 1% BSA (containing 1 uL anti-biotin PE fluorescent secondary antibodies, BioLegend, Cat. No. 405204) is added to each well for incubation at 4° C. for 0.5 hours, and after three times of washing with the pre-cooled PBS, the cells are resuspended and detected by a flow cytometer (Beckman, cytoflex).
# [12] = molecular target: T3, (Homo sapiens, UniProt P08581); assay: as above; assay type: binding; conditions: HGF-His-biotin 50 ng/ml
# T3 construct: MKN45 cells expressing c-MET antigens; endogenous in cells; host or cells: MKN45
# Description: as §3, §4
# MKN45 cells [13] = assay: Flow affinity of humanized antibodies to MKN45 cells; assay type: binding, human; conditions: flow cytometry
# Description: MKN45 cells (Nanjing Cobioer Biosciences Co., Ltd., CBP60488) are collected by trypsin digestion and centrifugation, and are washed three times with a pre-cooled PBS, the cells are resuspended with 1% BSA (in the PBS), and are plated into a 96-well conical bottom plate with 2^10^5 cells (50 ul) per well, anti-cMet humanized antibodies to be tested are gradiently diluted with 1% BSA starting at 20 μg/ml with a 4-fold dilution gradient and 8 concentration points, 50 ul diluted antibodies are mixed well with the cells in the conical bottom plate for incubation at 4° C. for 1 hour, after three times of washing with the pre-cooled PBS, 100 ul of 1% BSA (containing 1 uL anti-human APC fluorescent secondary antibodies, BioLegend, Cat. No. 410712) is added to each well for incubation at 4° C. for 0.5 hours, and after three times of washing with the pre-cooled PBS, the cells are resuspended for detection by a flow cytometer (Beckman, cytoflex).
# MKN45 cells [14] = assay: Endocytic activity on MKN45 cells; assay type: cell-based, human; conditions: 10 μg/mL, 37° C.
# Description: MKN45 cells are collected by trypsin digestion and centrifugation, incubated with humanized antibodies to be detected of a concentration of 10 μg/mL at 4° C. for 1 hour, and washed 3 times with the PBS, the cells are resuspended with DMEM+10% FBS that has been pre-warmed at 37° C., […], after 3 times of washing with a pre-cooled PBS, 1.2 uL of anti-human APC fluorescent secondary antibodies are added for incubation at 4° C. for 0.5 hours, and after three times of washing with the PBS, the cells are resuspended and added into a machine. Endocytosis rates are calculated according to the following formula: endocytosis rate (%)= ? 1−(an average fluorescence value of a test sample at this time point−an average fluorescence value of a negative control sample at this time point)/(an average fluorescence value of the test sample at 0 hour−an average fluorescence value of the negative control sample at 0 hour) ? * 100.
# h.cMet (cMet-ECD-his) = molecular target: T4, h.cMet (cMet-ECD-his) (Homo sapiens, UniProt P08581); assay: ELISA affinity of humanized antibodies to human cMet; assay type: binding; conditions: cMet-ECD-his coated
# T4 construct: a human cMet ectodomain recombinant protein (Human HGF R/c-MET Protein, His Tag); purchased Acrobiosystems Co., Ltd. / ACRO Biosystems MET-H5227
# Description: […]
# [15] = tested on: cynoMet (cyno.cMet-ECD-His); assay: ELISA affinity of humanized antibodies to cyno Met; assay type: binding; conditions: cyno.cMet-ECD-His captured
# Description: […]
# h.cMet-ECD-His [16] = molecular target: T1, h.cMet-ECD-His; assay: ForteBio dynamic affinity to h.cMet-ECD-His; assay type: binding; conditions: ProA sensor
# Description: Dynamic affinities of the humanized antibodies are assayed through ForteBio. Experimental steps are as follows: 1. sensor preparation: taking out a ProA sensor, and pre-wetting the sensor with a PBST diluent (pH 7.4) for 10 min; 2. sample dilution: separately diluting antibodies that need to be solidified to 5 μg/ml, antigens h.cMet-ECD-His (Acrobiosystems Co., Ltd., Cat. No.: MET-H5227) starting at 500 nM for 2-fold dilution with 5 concentration points and a 0 concentration point set; 3. setting a program, putting a sensor plate and a sample plate away, starting the program, and the sensor being regenerated with a glycine solution of 20 mM (pH 1.7); 4. using Octet analysis software to analyse data.
# T1 sequence (P08581 25-932 limits assumed): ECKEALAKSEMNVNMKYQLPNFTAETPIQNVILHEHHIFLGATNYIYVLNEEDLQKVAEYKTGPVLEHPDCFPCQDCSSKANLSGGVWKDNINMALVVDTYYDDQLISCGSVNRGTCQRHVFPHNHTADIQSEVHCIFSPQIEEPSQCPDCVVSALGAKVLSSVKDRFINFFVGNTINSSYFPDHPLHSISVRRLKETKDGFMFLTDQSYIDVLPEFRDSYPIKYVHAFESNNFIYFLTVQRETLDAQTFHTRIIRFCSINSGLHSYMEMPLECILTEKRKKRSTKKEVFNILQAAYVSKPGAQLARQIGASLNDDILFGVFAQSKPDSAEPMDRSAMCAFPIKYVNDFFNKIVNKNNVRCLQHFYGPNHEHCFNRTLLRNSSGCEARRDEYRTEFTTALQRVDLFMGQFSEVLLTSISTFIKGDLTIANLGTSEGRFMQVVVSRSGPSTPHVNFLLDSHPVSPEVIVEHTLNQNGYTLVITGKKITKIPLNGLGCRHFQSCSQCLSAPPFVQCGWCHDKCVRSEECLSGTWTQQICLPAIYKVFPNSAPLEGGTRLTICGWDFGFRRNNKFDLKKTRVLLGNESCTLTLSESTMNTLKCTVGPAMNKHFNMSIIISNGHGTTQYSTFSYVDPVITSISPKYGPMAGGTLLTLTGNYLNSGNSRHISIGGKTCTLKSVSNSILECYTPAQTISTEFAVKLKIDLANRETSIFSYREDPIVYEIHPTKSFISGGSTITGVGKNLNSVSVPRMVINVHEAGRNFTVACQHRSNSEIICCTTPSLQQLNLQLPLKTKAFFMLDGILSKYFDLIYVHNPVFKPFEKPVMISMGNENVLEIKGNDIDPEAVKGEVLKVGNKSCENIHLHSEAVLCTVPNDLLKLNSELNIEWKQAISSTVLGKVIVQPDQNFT
# T2 sequence (P08581 25-1390): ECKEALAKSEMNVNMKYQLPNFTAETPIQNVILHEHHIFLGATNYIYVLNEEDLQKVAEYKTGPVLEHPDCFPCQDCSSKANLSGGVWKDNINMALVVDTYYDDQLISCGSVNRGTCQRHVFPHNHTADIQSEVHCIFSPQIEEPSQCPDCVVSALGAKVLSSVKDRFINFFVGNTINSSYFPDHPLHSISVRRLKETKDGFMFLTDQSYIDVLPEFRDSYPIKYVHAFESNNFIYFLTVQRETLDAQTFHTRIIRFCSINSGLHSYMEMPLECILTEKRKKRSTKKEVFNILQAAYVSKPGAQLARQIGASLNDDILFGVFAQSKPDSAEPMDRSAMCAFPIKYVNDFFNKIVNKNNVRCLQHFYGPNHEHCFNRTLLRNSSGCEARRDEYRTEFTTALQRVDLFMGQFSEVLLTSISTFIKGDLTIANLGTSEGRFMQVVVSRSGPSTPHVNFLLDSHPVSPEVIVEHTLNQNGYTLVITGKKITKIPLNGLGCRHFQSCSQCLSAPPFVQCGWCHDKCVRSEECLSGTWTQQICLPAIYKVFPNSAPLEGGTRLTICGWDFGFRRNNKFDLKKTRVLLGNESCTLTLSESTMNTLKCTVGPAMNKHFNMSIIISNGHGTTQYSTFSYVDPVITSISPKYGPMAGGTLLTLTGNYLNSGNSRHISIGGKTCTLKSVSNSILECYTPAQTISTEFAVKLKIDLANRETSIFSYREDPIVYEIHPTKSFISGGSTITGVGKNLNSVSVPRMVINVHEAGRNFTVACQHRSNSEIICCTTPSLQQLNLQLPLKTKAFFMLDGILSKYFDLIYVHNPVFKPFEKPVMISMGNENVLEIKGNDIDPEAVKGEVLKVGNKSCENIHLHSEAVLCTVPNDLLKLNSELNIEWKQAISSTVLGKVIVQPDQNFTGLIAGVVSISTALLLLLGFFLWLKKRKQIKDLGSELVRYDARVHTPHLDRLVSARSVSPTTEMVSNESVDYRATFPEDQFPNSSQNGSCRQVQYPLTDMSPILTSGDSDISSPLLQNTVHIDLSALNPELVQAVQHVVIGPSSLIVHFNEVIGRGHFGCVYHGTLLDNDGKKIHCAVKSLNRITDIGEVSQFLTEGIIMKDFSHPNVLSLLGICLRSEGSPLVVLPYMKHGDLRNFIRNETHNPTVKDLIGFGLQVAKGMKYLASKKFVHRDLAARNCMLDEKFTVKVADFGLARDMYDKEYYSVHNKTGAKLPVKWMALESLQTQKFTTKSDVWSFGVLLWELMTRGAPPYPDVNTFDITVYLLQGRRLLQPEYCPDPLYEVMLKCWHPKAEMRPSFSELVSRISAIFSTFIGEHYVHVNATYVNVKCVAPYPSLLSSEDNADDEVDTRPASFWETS
# T3 sequence (P08581 25-1390): as above
# T4 sequence (P08581 25-932 limits assumed): as the sequence (P08581 25-932 limits assumed) above
substance,measurement,setting,value
"ABT700-Vc-MMAE (DAR4): ADC of control antibody ABT700 conjugated to vc-MMAE (CAS No.: 646502-53-6), DAR value 4.0 [reference compound]",EC50,SW480 cells,71.6 nM
same,EC50,NCI-H716 cells [1],288 nM
same,TGI (%) on Day 14,[2]; 0.3 mg/kg,1.7%
same,TGI (%) on Day 14,[2]; 1 mg/kg,3.5%
same,EC50,NCI-H716 cells [3],11.6 nM
same,NCI-H716 Maximum signal value,NCI-H716 cells [3],3737
same,TGI (%) on Day 15,[4],15.06%
"ABT700-Vc-MMAE (DAR9.7): ADC of control antibody ABT700 conjugated to vc-MMAE (CAS No.: 646502-53-6), DAR value 9.7 [reference compound]",EC50,LS1034 cells [5],0.852 nM
same,LS1034 Maximum signal value,LS1034 cells [5],8960
same,EC50,NCI-H358 cells [6],0.917 nM
same,NCI-H358 Maximum signal value,NCI-H358 cells [6],32386
same,EC50,LS1034 cells [7],53.7 nM
same,TGI (%) on Day 14,[8],84.6%
same,EC50,NCI-H358 cells [9],> 10000 nM
same,EC50,h.cMet-ECD-His [10],2.432 µg/mL
same,EC50,NCI-H69 cells,0.212 nM
same,NCI-H69 Maximum signal value,NCI-H69 cells,8214
"ABT700: control anti-c-Met antibody with a sequence from KEGG, ID: D11307 [reference compound]",Maximum inhibition rate %,[11],75%
same,MKN45 IC50,[12],0.167 µg/mL
same,MKN45 EC50,MKN45 cells [13],0.1004 µg/mL
same,Maximum signal value,MKN45 cells [13]; MKN45,70415
same,Endocytosis rate %,MKN45 cells [14]; 1 h,7.9%
same,Endocytosis rate %,MKN45 cells [14]; 2 h,19.2%
same,Endocytosis rate %,MKN45 cells [14]; 4 h,44.5%
same,h.cMet EC50,h.cMet (cMet-ECD-his),0.004148 µg/mL
same,cynoMet EC50,[15],0.1434 µg/mL
same,EC50,h.cMet-ECD-His [10],0.005257 µg/mL
same,ka,h.cMet-ECD-His [16],169000 M⁻¹ s⁻¹
same,kdis,h.cMet-ECD-His [16],3.91e-07 s⁻¹
